Values quoted from earlier work as cited in patent US20140100537A1 (MEDICURE INTERNATIONAL INC., priority 2009, published 2014).

Test system: platelet aggregation
Details: typical dosage for tirofiban

Structure (SMILES): CCCCS(=O)(=O)NC(Cc1ccc(OCCCCC2CCNCC2)cc1)C(=O)O.Cl (stereo not shown) [tirofiban]
- platelet inhibition provided by typical dosage: > 90%
